{
  "source": "patent US20080139449A1",
  "about": "(priority 2005, published 2008)",
  "key": {"FPPS [1]": {"biological_target": "T1, FPPS (Homo sapiens, UniProt P14324)"}, "FPPS [2]": {"biological_target": "T1, FPPS", "conditions": "with respect to allylic substrates and IPP; cited from earlier work"}},
  "data": [
    {"smiles": "C=C(C)CCOP(=O)(O)OP(=O)(O)O", "note": "[IPP, isopentenyl diphosphate]", "values": [
      {"measurement": "binding in the presence of zoledronate/Mg2+ (NMR)", "setting": "FPPS [1]; IPP 400 μM added to FPPS/zoledronate/Mg2+ sample", "value": "binds to FPPS even in the presence of zoledronate"}
    ]},
    {"smiles": "NCCCC(O)(P(=O)(O)O)P(=O)(O)O", "note": "[alendronate]", "values": [
      {"measurement": "mode of FPPS inhibition", "setting": "FPPS [2]", "value": "competitive with respect to allylic substrates but not IPP"}
    ]},
    {"smiles": "NCCC(O)(P(=O)(O)O)P(=O)(O)O", "note": "[pamidronate]", "values": [
      {"measurement": "chemical shift changes in 15N,1H-TROSY spectrum upon ligand addition", "setting": "FPPS [1]; FPPS dimer 60 μM, pamidronate 270 μM, Mg2+ 900 μM", "value": "almost all of the non-overlapping resonances experience chemical shift changes"}
    ]}
  ]
}
